According to patent publication US20200069609A1 (WIGEN BIOMEDICINE TECHNOLOGY (SHANGHAI) CO., LTD., priority 2017, published 2020):

Experiments:
LC3B (1-125) [1] = target: T1, LC3B (1-125) (Homo sapiens, UniProt Q9GZQ8); assay: Protein thermal shift assay; format: binding; conditions: protein 4 μM, compound 40 μM
T1 construct: GST (N, cleaved yes); made in house
Method: (§1) GST-LC3B (1-125) (SEQ ID NO: 2) and each mutant protein were expressed by IPTG induction in DE3 competent cells at 16° C. After collecting and resuspending DE3 competent cells, the cells were sonicated and centrifuged. The resulted supernatant was hanged on the column (GSTrap FF, GE), followed by eluting with glutathione-containing eluant, and then the target protein was produced by gel filtration chromatography. This fusion protein was used directly in the fluorescence polarization assay. The proteins used in the protein thermal shift assay, mass spectrometry, and protein crystallization experiments were produced by PP enzyme or thrombin digestion and the following gel filtration chromatography to the GST-fusion protein obtained by the above method.
(§2) The protein thermal shift assay is used to test the effect of compounds on the thermodynamic stability of proteins via the Quant Studio 6 Flex Real-Time PCR system. Protein LC3B (1-125) (SEQ ID NO: 3) and each mutant protein (SEQ ID NO: 7-15) (final concentration 4 μM), environmentally sensitive dye (5×SYPRO orange, Invitrogen) and compound (final concentration 40 μM) were mixed in the buffer solution (50 mM HEPES pH 7.5, 1 mM DTT) to a total volume of 20 μL. The sample was heated from 25° C. to 95° C. with a heating rate of 3%. Changes in fluorescence intensity were monitored and each melting temperature (Tm), represented by AT in the unit of ° C., was calculated by Protein Thermal Shift Software 1.1 (ABI).

LC3B K49A mutant = target: T2, LC3B K49A mutant (Homo sapiens, UniProt Q9GZQ8, K49A); assay: Protein thermal shift assay on K49A mutant; format: binding
T2 construct: GST (N, cleaved yes); made in house
Method: as §2
(§3) LC3B totally has 9 lysines, and for investigating the site selectivity of Compound A, all the 9 lysines were mutated to alanine (K8A, K30A, K39A, K42A, K49A, K51A, K65A, K103A, K122A; SEQ ID NO:7-15).

GST-LC3B = target: T3, GST-LC3B (Homo sapiens, UniProt Q9GZQ8); assay: Fluorescence polarization (FP) assay, GST-LC3B with FITC-labeled peptide; format: binding; conditions: GST-LC3B 180 nM, FITC-labeled peptide 18 nM
T3 construct: This fusion protein was used directly in the fluorescence polarization assay; made in house
Method: as §1
Recombinant protein GST-LC3B (final concentration 180 nM) (SEQ ID NO: 2) and N-terminal FITC-labeled peptide (SEQ ID NO: 5, final concentration 18 nM) were placed in FP buffer solution (50 mM HEPES pH 7.5, 0.1 mg/ml BSA and 1 mM DTT), into which the compound gradually diluted by the FP buffer was added, then the resulted mixture was incubated in dark at 25° C. Fluorescence polarization values were monitored (PerkinElmer Envision, the wavelength of the […]) and the IC50 values were calculated by the GraphPad Prism 6.0 program.
Representation of the IC50 value of the compounds: “[…]<IC50≤1 mM” is considered as having low activity (+) against LC3B. “15 μM<<IC50≤100 μM” of the compound is considered as having moderate activity (++) against LC3B. “3 μM<IC50≤15 μM” is considered as having high activity (+++) against LC3B. “IC50≤3 μM” is considered as having higher activity (++++) against LC3B.

[2] = system: LC3B mutants K8A, K30A, K39A, K42A, K51A, K65A, K103A, K122A; assay: Protein thermal shift assay on lysine-to-alanine mutants other than K49A; format: binding, human; conditions: all lysine-to-alanine mutants except K49A; protein 4 μM, compound 40 μM
Method: as §2, §3

LC3B (2-119) = target: T4, LC3B (2-119) (Homo sapiens, UniProt Q9GZQ8); assay: Crystal complex structure of LC3B protein and small molecule; conditions: crystal soaked with compound 1-5 mM
T4 construct: GST (N, cleaved yes); made in house
Method: A vacant protein crystal of LC3B (2-119) (SEQ ID NO: 4) was obtained by the sit-drop method, and then the crystal was taken out and soaked in a bath containing Compound A with a final concentration of 1-5 mM. The diffraction data were collected at the 19U1 line station of Shanghai Synchrotron Radiation Facility. And the diffraction data were integrated by XDS software and then compressed by Aimless module in CCP4. The LC3B protein structure with a PDB number of 3VTU was used as a template to perform molecular replacement by Phaser module to obtain the initial phase information, and then final refinement was performed by PHENIX and COOT.

Hela cells = assay: Immunofluorescence staining of autophagosomes in Hela cells; format: cell-based; conditions: 30 μM or 100 μM for 12 h, then serum-free starvation 24 hours; compared with control group
Method: For further investigating the effects of compounds on cell autophagosomes, Hela cells were seeded onto glass coverslips in 6-well plate and cultured until the cells being in good conditions, which were treated with 30 μM or 100 μM of Compound B for 12 h, then replaced to a serum-free medium and starved for 24 hours. The cells were pre-cooled for 10 minutes, then punched with 0.2% Triton X-100 and stood at room temperature for 10 minutes. Next, the cells were blocked with PBS containing 2.5% BSA and incubated overnight with a 4 degree anti-LC3B primary antibody, after which the primary antibody was recognized with a fluorescent secondary antibody, the nuclei were stained with DAPI and photographed under a microscope.

LC3B (1-125) [3] = target: T1, LC3B (1-125); assay: Mass spectrometry of LC3B incubated with compound; conditions: trypsin digest, b and y type ions
Method: For further verifying the covalent binding, LC3B (1-125) (SEQ ID NO: 3) protein was separately incubated with compounds B, C and D for mass spectrometry.
After incubating the compound and protein for a given period of time, the product was separated by gel electrophoresis, and the protein having an appropriate size was digested by trypsin. The resulting polypeptide was dissolved and loaded onto a C18 reverse-phase column coupled to an EASY-nLC 1000 system. The polypeptide was eluted to perform mass spectrometry and Mascot search.

Compound | ΔT (melting temperature shift) (LC3B (1-125) [1]; Table 1) | IC50 (GST-LC3B; Table 1, 25° C.) | ΔT (melting temperature shift) (LC3B (1-125) [1]; Table 2, comparative compounds) | IC50 (GST-LC3B; Table 2, comparative compounds) | further results
2-((Dimethyl amino)methyl- ene)-5-(tlhio- phen-2-yl)cyclo- hexane-1,3- dione [Compound A] | 10.37 °C | 1.56 µM | – | – | site selectivity for lysine at position 49 in LC3B (LC3B K49A mutant; concluded from thermal shift of the 9 lysine mutants): selectively modify the lysine at position 49; thermal shift of LC3B mutants [2]: significant thermal shift; covalent linkage in crystal complex (LC3B (2-119)): covalently linked to the lysine residue (ε-amino group) at position 49 in LC3B
5-phenyl-2- (((2-(4-(benzoyl) piperazin-1-yl) ethyl)amino) methylene) cyclohexane-1,3- dione [G] | 9.83 °C | 4.83 µM | – | – | –
Cc1ccc(NC(=O)CN2CCN(CCNCC3C(=O)CC(c4ccc(C)cc4)CC3=O)CC2)cc1 (stereo not drawn) [Compound B] | – | – | – | – | cell autophagosomes (anti-LC3B immunofluorescence) (Hela cells): cell autophagosomes accumulated
NC=C1C(=O)CC(c2ccccc2)CC1=O (stereo not drawn) [Compound C, 2-(aminomethyl-ene)-5-phenyl-cyclohexane-1,3-dione] | 2.87 °C | 28.8 µM | – | – | covalent modification of LC3B by mass spectrometry (LC3B (1-125) [3]): covalently modified the lysine at position 49 in LC3B
COc1ccc(C2CC(=O)C(=CN(C)C)C(=O)C2)cc1 (stereo not drawn) [Compound D, 2-((Dimethylamino)methyl-ene)-5-(4-methoxyphenyl) cyclohexane-1,3-dione] | 10.82 °C | 1.46 µM | – | – | covalent modification of LC3B by mass spectrometry (LC3B (1-125) [3]): covalently modified the lysine at position 49 in LC3B
O=C1CC(c2cccc3[nH]ccc23)CC(=O)C1=CO (stereo not drawn) [Compound I, 2-(hydroxy-methylene)-5-(1H-indol-4-yl)cyclohexane-1,3-dione] | 13.4 °C | 0.51 µM | – | – | covalent linkage in crystal complex (LC3B (2-119)): covalently linked to the lysine residue (ε-amino group) at position 49 in LC3B
Cc1ccc(NC(=O)CN2CCN(CCNC=C3C(=O)CC(c4ccccc4)CC3=O)CC2)cc1 (stereo not drawn) [E] | 10.21 °C | 5 µM | – | – | –
CCNC(=S)N1CCN(CCNC=C2C(=O)CC(c3ccccc3)CC2=O)CC1 (stereo not drawn) [F, 5-phenyl-2-(((2-(4-(ethyl-aminothiocarbonyl)piperazin-1-yl)ethyl)amino)methylene) cyclohexane-1,3-dione] | – | 6.54 µM | – | – | –
Cc1ccc(C2CC(=O)C(=CNCCN3CCN(C(=O)C(C)C)CC3)C(=O)C2)cc1 (stereo not drawn) [H] | – | 5 µM | – | – | –
CC1=CCC(C(=O)O)C(C(=O)Nc2ccc(-c3nc4ccc(C)cc4s3)cc2)C1 (stereo not drawn) [compound 1, reference compound] | – | – | 0 °C | 46 µM | –
Cc1ccc(C(=O)O)c(C(=O)Nc2ccc(-c3nc4ccc(C)cc4s3)cc2)c1 [compound 2, reference compound] | – | – | 0 °C | 50 µM | –
CCOc1c(I)cc(/C=N\Nc2ccc(C(=O)O)cc2)cc1OC [compound 3, reference compound] | – | – | 2.1 °C | 28 µM | –
Cc1cc(NS(=O)(=O)c2ccc(NC(=O)c3ccc(C(=O)Nc4ccc(S(=O)(=O)Nc5cc(C)on5)cc4)cc3)cc2)no1 [compound 4, reference compound] | – | – | 1.8 °C | 28 µM | –
Cc1ccc2c(C)c(C(=O)Nc3ccc(S(=O)(=O)Nc4onc(C)c4C)cc3)oc2c1 [compound 6, reference compound] | – | – | 0 °C | 47 µM | –
LBP2: positive control polypeptide, LBP2 (SEQ ID NO: 6) (GGDDDWTHLSSKEVD; LBP2) [reference compound] | – | – | – | – | thermal shift of LC3B K49A mutant (LC3B K49A mutant; K49A mutant, protein 4 μM, compound 40 μM): significant heat shift; thermal shift of LC3B mutants [2]: significant heat shift
